Experiments:
[1] = molecular target: recombinant human AChE (hAChE) (Homo sapiens, UniProt P22303); assay: hAChE inhibition assay; assay type: biochemical; conditions: read-out: hAChE inhibition rate % at 20 µM
[2] = test system: Aβ1–42-induced cognitive impairment in mice; assay: Morris water maze in Aβ1–42-induced cognitive impairment model; assay type: in vivo; conditions: T14-A24 10 mg/kg po, donepezil 15 mg/kg po

Chain of recombinant human AChE (hAChE) (P22303 32-614): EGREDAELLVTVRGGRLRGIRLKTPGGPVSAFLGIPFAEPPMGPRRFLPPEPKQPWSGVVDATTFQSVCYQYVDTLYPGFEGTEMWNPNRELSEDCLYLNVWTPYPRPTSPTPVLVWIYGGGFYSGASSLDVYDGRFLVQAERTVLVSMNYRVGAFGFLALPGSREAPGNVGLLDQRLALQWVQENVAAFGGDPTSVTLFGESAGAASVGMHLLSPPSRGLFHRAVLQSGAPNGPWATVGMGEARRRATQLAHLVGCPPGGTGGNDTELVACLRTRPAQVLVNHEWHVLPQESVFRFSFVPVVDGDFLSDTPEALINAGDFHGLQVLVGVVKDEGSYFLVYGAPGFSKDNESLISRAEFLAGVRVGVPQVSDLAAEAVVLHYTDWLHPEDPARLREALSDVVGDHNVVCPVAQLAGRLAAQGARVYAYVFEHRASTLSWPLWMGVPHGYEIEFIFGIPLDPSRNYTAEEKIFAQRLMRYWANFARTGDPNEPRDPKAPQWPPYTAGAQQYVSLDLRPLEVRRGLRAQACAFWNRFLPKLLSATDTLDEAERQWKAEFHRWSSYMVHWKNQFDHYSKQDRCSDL

CCN(C)C(=O)Oc1cccc([C@H](C)N(C)C)c1 [Rivastigmine]
inhibition at 20 µM [1]: 16.5 ± 0.8%

COc1cc2c(cc1OC)C(=O)C(CC1CCN(Cc3ccccc3)CC1)C2 (centres unmarked) [Donepezil]
Aβ1–42-induced cognitive dysfunction (Morris water maze) [2]: significantly improved
